How the values were obtained:
Experiment in all cases: NMR-based dNTPase assay, activation by GTP
Assay type in all cases: biochemical
[1] = target: T1, SAMHD1_114–626 (HD domain construct of SAMHD1) (Homo sapiens, UniProt Q9Y3Z3)
T1 construct: HD domain construct, residues 114-626, bacterial expression; nucleotide-dependent homotetramer; 10 cysteines
Experimental: NMR-based dNTPase assay, activation by GTP on SAMHD1_114–626 (HD domain construct of SAMHD1) | kcat and EC50^GTP parameters were determined by non-linear fitting

[2] = target: T2, SAMHD1_114–626 (HD domain construct of SAMHD1) (Homo sapiens, UniProt Q9Y3Z3, C341S)
T2 construct: HD domain construct, residues 114-626, bacterial expression; nucleotide-dependent homotetramer; 10 cysteines
Excerpt: (§1) NMR-based dNTPase assay, activation by GTP on SAMHD1_114–626 (HD domain construct of SAMHD1) | EC50) values for GTP-mediated activation for C341S and C350S were also higher

[3] = target: T3, SAMHD1_114–626 (HD domain construct of SAMHD1) (Homo sapiens, UniProt Q9Y3Z3, C350S)
T3 construct: HD domain construct, residues 114-626, bacterial expression; nucleotide-dependent homotetramer; 10 cysteines
Excerpt: as §1

[4] = target: T4, SAMHD1_114–626 (HD domain construct of SAMHD1) (Homo sapiens, UniProt Q9Y3Z3, C522S)
T4 construct: HD domain construct, residues 114-626, bacterial expression; nucleotide-dependent homotetramer; 10 cysteines
Excerpt: NMR-based dNTPase assay, activation by GTP on SAMHD1_114–626 (HD domain construct of SAMHD1) | properties of the C522S mutant were indistinguishable from those of the WT protein

T4 sequence (Q9Y3Z3 114-626 C522S): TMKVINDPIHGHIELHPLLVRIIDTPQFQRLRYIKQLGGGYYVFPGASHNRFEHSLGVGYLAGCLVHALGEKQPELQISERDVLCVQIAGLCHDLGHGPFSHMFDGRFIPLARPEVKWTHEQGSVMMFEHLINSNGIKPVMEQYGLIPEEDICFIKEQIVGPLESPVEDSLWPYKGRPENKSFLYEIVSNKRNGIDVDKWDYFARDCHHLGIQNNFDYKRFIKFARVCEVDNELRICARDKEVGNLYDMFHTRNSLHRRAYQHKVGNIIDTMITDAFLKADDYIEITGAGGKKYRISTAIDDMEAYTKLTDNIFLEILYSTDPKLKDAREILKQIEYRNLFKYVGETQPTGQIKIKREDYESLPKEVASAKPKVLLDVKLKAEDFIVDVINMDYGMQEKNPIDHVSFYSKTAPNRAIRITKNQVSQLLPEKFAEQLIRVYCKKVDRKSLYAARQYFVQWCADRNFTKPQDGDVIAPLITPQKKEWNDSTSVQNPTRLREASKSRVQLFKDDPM
T3 sequence (Q9Y3Z3 114-626 C350S): as the sequence (Q9Y3Z3 114-626 C522S) above, with C237S, S409C counted along it
T2 sequence (Q9Y3Z3 114-626 C341S): as the sequence (Q9Y3Z3 114-626 C522S) above, with C228S, S409C counted along it
T1 sequence (Q9Y3Z3 114-626): as the sequence (Q9Y3Z3 114-626 C522S) above, with S409C counted along it

EC50 [1]: 3.9 µM | EC50 [2]: 44.4 µM | EC50 [3]: 8.1 µM | EC50 [4]: 4.8 µM
Compound: Nc1nc2c(ncn2[C@@H]2O[C@H](COP(=O)(O)OP(=O)(O)OP(=O)(O)O)[C@@H](O)[C@H]2O)c(=O)[nH]1 [GTP]

Reference: article PMC6067006, “Functionality of Redox-Active Cysteines Is Required for Restriction of Retroviral Replication by SAMHD1” (Cell reports, 2018)
